Experimental findings from DBAASP are described below.

Converted amounts (≈) assume the structure as drawn.

Test systems include Escherichia coli BW25113; Pseudomonas aeruginosa; Escherichia coli B; Bacillus subtilis 168; Staphylococcus aureus; Candida albicans; Escherichia coli UB1005; Streptococcus mutans.
Assay in all cases: ≥ marks a high value that may be exact or a test limit, other limits are often not marked, values filed in µg/mL are converted to µM
Experiment [1] relates to Escherichia coli NCTC 10418.
In experiment [2] the test system is Staphylococcus aureus NCTC 10788.
The test system of experiment [3] is Candida albicans NCPF 1467.
The subject of experiment [4] is Escherichia coli ATCC 25922.
In experiment [5] the test system is Corynebacterium glutamicum ATCC 13032.
Experiment [6] concerns Pseudomonas aeruginosa ATCC 27853.
Experiment [7] deals with Staphylococcus aureus ATCC 9144.
The test system of experiment [8] is Enterococcus faecalis ATCC 29212.
Experiment [9] has as its system Staphylococcus epidermidis.
The test system of experiment [10] is Pseudomonas aeruginosa H103.
For experiment [11], the system named is Staphylococcus aureus ATCC 25923.
Experiment [12] deals with Salmonella enterica serovar Typhimurium.

In the case of `CC[C@H](C)[C@H](NC(=O)[C@H](C)NC(=O)[C@@H]1CCCN1C(=O)[C@H](CC(C)C)NC(=O)[C@@H](N)Cc1ccccc1)C(=O)N[C@@H](C)C(=O)NCC(=O)N[C@H](C(=O)N[C@@H](C)C(=O)N[C@@H](C)C(=O)N[C@@H](CCCCN)C(=O)N[C@@H](Cc1ccccc1)C(=O)N[C@@H](CC(C)C)C(=O)N1CCC[C@H]1C(=O)N[C@@H](CCCCN)C(=O)N[C@H](C(=O)N[C@@H](Cc1ccccc1)C(=O)N[C@H]1CSSC[C@@H](C(=O)O)NC(=O)[C@H](CCCCN)NC(=O)[C@H](CCCCN)NC(=O)[C@H]([C@@H](C)O)NC(=O)[C@H]([C@@H](C)CC)NC(=O)[C@H](C)NC1=O)[C@@H](C)CC)C(C)C` [FLPAIAGVAAKFLPKIFCAITKKC], the minimal inhibitory concentration (MIC) (as a rule, the smallest concentration in the dilution series that meets the test's criterion for growth inhibition) in experiment [1] is 25.1 µM (≈ 64 µg/mL); in [2], 6.28 µM (≈ 16 µg/mL); in [3], 3.14 µM (≈ 8 µg/mL).

Regarding `CC[C@H](C)[C@H](NC(=O)[C@H](CCCCN)NC(=O)[C@H](CCCCN)NC(=O)[C@@H](NC(=O)[C@H](CC(C)C)NC(=O)[C@H](CCCCN)NC(=O)[C@@H]1CCCN1C(=O)[C@@H](NC(=O)[C@H](CC(C)C)NC(=O)[C@H](CO)NC(=O)[C@H](CC(C)C)NC(=O)[C@@H](N)Cc1ccccc1)[C@@H](C)CC)C(C)C)C(=O)N[C@H](C(=O)N[C@@H](CCCCN)C(=O)N[C@@H](C)C(=O)N[C@@H](Cc1ccccc1)C(=O)N[C@@H](CCCCN)C(=O)O)[C@@H](C)CC` [FLSLIPKLVKKIIKAFK], the MIC in experiment [1] was determined as 5 µM (≈ 9.93 µg/mL); in experiment [2], 2.5 µM (≈ 4.97 µg/mL); in experiment [3], 2.5 µM (≈ 4.97 µg/mL).

The compound `CC[C@H](C)[C@H](NC(=O)[C@@H]1CCCN1C(=O)[C@H](CCCN=C(N)N)NC(=O)[C@H](CCCN=C(N)N)NC(=O)[C@H](Cc1c[nH]c2ccccc12)NC(=O)[C@@H](N)CCCN=C(N)N)C(=O)N[C@@H](CCCN=C(N)N)C(=O)N[C@@H](CCCN=C(N)N)C(=O)N[C@@H](CCCN=C(N)N)C(=O)N1CCC[C@H]1C(=O)N[C@H](C(=O)N[C@@H](CCCN=C(N)N)C(=O)N1CCC[C@H]1C(=O)N1CCC[C@H]1C(=O)N[C@@H](Cc1c[nH]c2ccccc12)C(=O)N[C@@H](Cc1ccc(O)cc1)C(=O)N[C@@H](CCCN=C(N)N)C(=O)O)[C@@H](C)CC` [RWRRPIRRRPIRPPWYR] registered an MIC against Escherichia coli BW25113 of 8 µM (≈ 19.3 µg/mL).

For the compound `CC[C@H](C)[C@H](NC(=O)[C@H](CO)NC(=O)[C@H](CC(C)C)NC(=O)[C@H](Cc1ccccc1)NC(=O)CN)C(=O)N[C@@H](CC(C)C)C(=O)N[C@@H](CCCCN)C(=O)N[C@@H](CCCCN)C(=O)N[C@H](C(=O)N[C@@H](CC(C)C)C(N)=O)C(C)C` [GFLSILKKVL], the MIC in the experiment on Pseudomonas aeruginosa was 59 µM (≈ 65.9 µg/mL); in the experiment on Escherichia coli B it was 9.1 µM (≈ 10.2 µg/mL); against Bacillus subtilis 168, 2.9 µM (≈ 3.24 µg/mL); in the experiment on Staphylococcus aureus it was 10.9 µM (≈ 12.2 µg/mL).

For the compound `CC(C)[C@H](NC(=O)[C@H](CCCCN)NC(=O)[C@H](C)NC(=O)[C@@H](NC(=O)[C@@H](NC(=O)[C@H](CCCN=C(N)N)NC(=O)[C@H](CCCN=C(N)N)NC(=O)[C@H](Cc1c[nH]c2ccccc12)NC(=O)[C@H](Cc1c[nH]c2ccccc12)NC(=O)CN)[C@@H](C)O)C(C)C)C(=O)N[C@@H](CCCN=C(N)N)C(=O)N[C@@H](CC(N)=O)C(N)=O` [GWWRRTVAKVRN], the MIC in experiment [4] was 6.3 µM (≈ 9.63 µg/mL); in experiment [5], 1.6 µM (≈ 2.44 µg/mL); in experiment [6] it was 6.3 µM (≈ 9.63 µg/mL); in experiment [7], at least 50 µM.

`CC[C@H](C)[C@H](NC(=O)[C@H](CCCN=C(N)N)NC(=O)[C@H](CC(C)C)NC(=O)[C@H](CCCN=C(N)N)NC(=O)[C@@H](N)C(C)C)C(=O)N[C@@H](CCCN=C(N)N)C(=O)N[C@H](C(=O)N[C@@H](CCCN=C(N)N)C(=O)N[C@H](C(=O)N[C@H](C(=O)N[C@@H](CCCN=C(N)N)C(=O)N[C@@H](CCCCN)C(=O)O)[C@@H](C)CC)C(C)C)C(C)C` [VRLRIRVRVIRK]: the MIC against Candida albicans amounted to 8 µM (≈ 12.5 µg/mL); in experiment [8] it was 4 µM (≈ 6.26 µg/mL); in [9], 1 µM (≈ 1.56 µg/mL); in experiment [10] it was 2 µM (≈ 3.13 µg/mL); in experiment [11], 1 µM (≈ 1.56 µg/mL); in [12], 2 µM (≈ 3.13 µg/mL). The MIC against Escherichia coli UB1005 is 2 µM (≈ 3.13 µg/mL).

In the case of `CC[C@H](C)[C@H](NC(=O)[C@H](C)NC(=O)[C@H](CCCCN)NC(=O)[C@@H]1CCCN1C(=O)[C@@H](NC(=O)[C@H](CC(C)C)NC(=O)[C@H](CCCCN)NC(=O)[C@H](Cc1ccccc1)NC(=O)[C@H](CC(C)C)NC(=O)[C@@H](N)Cc1ccccc1)[C@@H](C)CC)C(=O)N[C@@H](CCCCN)C(=O)NCC(=O)N[C@@H](CC(C)C)C(=O)N[C@H](C(=O)N[C@@H](CCCCN)C(=O)N[C@@H](C)C(=O)N[C@H](C(=O)N[C@@H](CCCN=C(N)N)C(=O)N[C@@H](CCCCN)C(N)=O)[C@@H](C)CC)C(C)C` [FLFKLIPKAIKGLVKAIRK], the MIC worked out at 7.33 µM (≈ 16 µg/mL) in experiment [1], 1.83 µM (≈ 4 µg/mL) in [2] and 1.83 µM (≈ 4 µg/mL) in experiment [3].

`CC[C@H](C)[C@H](NC(=O)[C@@H]1CCCN1C(=O)[C@H](CCCN=C(N)N)NC(=O)[C@H](CCCN=C(N)N)NC(=O)[C@H](CCCN=C(N)N)NC(=O)[C@@H](N)CCCN=C(N)N)C(=O)N[C@@H](CCCN=C(N)N)C(=O)N[C@@H](CCCN=C(N)N)C(=O)N[C@@H](CCCN=C(N)N)C(=O)N1CCC[C@H]1C(=O)N[C@H](C(=O)N[C@@H](CCCN=C(N)N)C(=O)N1CCC[C@H]1C(=O)N1CCC[C@H]1C(=O)N[C@@H](Cc1ccccc1)C(=O)N[C@@H](Cc1ccc(O)cc1)C(=O)N[C@@H](CCCN=C(N)N)C(=O)O)[C@@H](C)CC` [RRRRPIRRRPIRPPFYR] displayed an MIC in the experiment with Escherichia coli BW25113 of 16 µM (≈ 37.6 µg/mL).

`CC[C@H](C)[C@H](NC(=O)[C@@H]1CCCN1C(=O)[C@@H]1CCCN1C(=O)[C@H](CCCN=C(N)N)NC(=O)[C@H](Cc1ccccc1)NC(=O)[C@@H](N)CCCN=C(N)N)C(=O)N[C@@H](CCCN=C(N)N)C(=O)N[C@@H](CCCN=C(N)N)C(=O)N1CCC[C@H]1C(=O)N1CCC[C@H]1C(=O)N[C@H](C(=O)N[C@@H](CCCN=C(N)N)C(=O)N1CCC[C@H]1C(=O)N1CCC[C@H]1C(=O)N[C@@H](Cc1c[nH]c2ccccc12)C(=O)N[C@@H](Cc1ccc(O)cc1)C(=O)N1CCC[C@H]1C(=O)O)[C@@H](C)CC` [RFRPPIRRPPIRPPWYP] displayed an MIC against Escherichia coli BW25113 of at least 32 µM.

For `NCCCC[C@H](NC(=O)[C@H](Cc1c[nH]c2ccccc12)NC(=O)[C@H](CCCN=C(N)N)NC(=O)[C@H](Cc1c[nH]c2ccccc12)NC(=O)[C@H](CCCN=C(N)N)NC(=O)[C@H](Cc1c[nH]c2ccccc12)NC(=O)[C@@H](N)CCCN=C(N)N)C(=O)O` [RWRWRWK], the MIC in the experiment on Streptococcus mutans is 27.3 µM (≈ 32 µg/mL). That is a double-digit micromolar value.

As to `CC[C@H](C)[C@H](NC(=O)[C@H](CCCCN)NC(=O)[C@H](CCCN=C(N)N)NC(=O)[C@H](Cc1c[nH]c2ccccc12)NC(=O)[C@H](Cc1c[nH]c2ccccc12)NC(=O)[C@H](Cc1c[nH]c2ccccc12)NC(=O)[C@H](CCCCN)NC(=O)[C@H](Cc1c[nH]c2ccccc12)NC(=O)[C@@H](N)CCCCN)C(=O)O` [KWKWWWRKI], the MIC in the experiment on Candida albicans was 4.6 µM (≈ 6.52 µg/mL); in [8] it was 4.6 µM (≈ 6.52 µg/mL); in [9] it was 1.2 µM (≈ 1.7 µg/mL); in experiment [10] it was 4.6 µM (≈ 6.52 µg/mL); in [11], 1.2 µM (≈ 1.7 µg/mL); in experiment [12], 4.6 µM (≈ 6.52 µg/mL). In the experiment on Escherichia coli UB1005, the MIC worked out at 4.6 µM (≈ 6.52 µg/mL).

Take `NCCCC[C@H](NC(=O)[C@H](CCCN=C(N)N)NC(=O)[C@H](Cc1c[nH]c2ccccc12)NC(=O)[C@H](Cc1c[nH]c2ccccc12)NC(=O)[C@H](CCCN=C(N)N)NC(=O)[C@@H](N)CCCCN)C(=O)N[C@@H](Cc1c[nH]c2ccccc12)C(=O)N[C@@H](Cc1c[nH]c2ccccc12)C(=O)N[C@@H](CCCN=C(N)N)C(=O)O` [KRWWRKWWR]: the MIC with Candida albicans is 5.4 µM (≈ 8.03 µg/mL); in experiment [8], 10.8 µM (≈ 16.1 µg/mL); in experiment [9], 0.7 µM (≈ 1.04 µg/mL); in experiment [10], at least 43.2 µM; in experiment [11] it was 0.7 µM (≈ 1.04 µg/mL); in experiment [12], 5.4 µM (≈ 8.03 µg/mL). The compound also had an MIC against Escherichia coli UB1005 of 2.7 µM (≈ 4.02 µg/mL).

Compound `CC[C@H](C)[C@H](NC(=O)[C@@H]1CCCN1C(=O)[C@H](Cc1c[nH]c2ccccc12)NC(=O)[C@H](CCCN=C(N)N)NC(=O)[C@H](Cc1ccccc1)NC(=O)[C@@H](N)CCCN=C(N)N)C(=O)N[C@@H](CCCN=C(N)N)C(=O)N[C@@H](CCCN=C(N)N)C(=O)N1CCC[C@H]1C(=O)N1CCC[C@H]1C(=O)N[C@H](C(=O)N[C@@H](CCCN=C(N)N)C(=O)N1CCC[C@H]1C(=O)N1CCC[C@H]1C(=O)N[C@@H](Cc1ccccc1)C(=O)N[C@@H](Cc1ccc(O)cc1)C(=O)N1CCC[C@H]1C(=O)O)[C@@H](C)CC` [RFRWPIRRPPIRPPFYP] showed an MIC in the experiment on Escherichia coli BW25113 of 8 µM (≈ 18 µg/mL).
